“Also recorded” adds a separate entry of the source.

Results on 4 molecules are retold here after patent publication US20010008770A1, “MICRO-ORGANISM WHICH CAN DESULPHURISE BENZOTHIOPHENES” (priority 1996, published 2001).

The subject of data set [1] is Rhodococcus sp. strain IGTS8. The settings on record: background statement; cited from earlier work.
Data set [2] relates to Rhodococcus sp. strain 213E. In words: Growth studies of strain 213E in mineral salts medium with a sole sulphur source (biomass OD600, Gibbs phenol assay, GC-MS of metabolites). The following applies: for Mean Generation time / Biomass at end log phase: strain 213E in FruRM.
Protocol: (§1) The final pH was 7.2 without titration. In some experiments another sugar replaced glucose as the carbon-source.
(§2) For cultures of strain IGTS8, DST (200 μM, added from a stock solution, 40 mM in acetone) was included.
(§3) Growth studies SRM (50 ml in a 100 ml Ehrlenmyer flask) was inoculated with a loopful of cells from a plate and incubated in an orbital shaker (250 rpm, 30° C.). At intervals as appropriate, an 3 ml sample was removed aseptically for measurement of biomass (as optical density at 600 mm, O.D.600) and for phenol production using the Gibbs Assay. The Gibbs Assay was carried out as follows: 1.5 ml of the sample was aliquoted into a Eppendorf tube, centrifuged (12000 rpm, 5 min) to remove the cells and frozen (−20° C.) until the end of the experiment. The samples were then thawed out and 1.0 ml of the supernatant was transferred to a 1 ml disposable spectrophotometer cuvette. 10 μl Gibbs reagent (10 mM in acetone) was then added to each cuvette. A blank solution (SRM +10 μg Gibbs reagent) was also prepared. The set was incubated overnight at 30° C., for full colour development, and the absorbance at 610 nm was measured.
(§4) Cells were removed by centrifugation at 2800×g (3000 rpm) for 30 mins and the supernatant was titrated to pH 1 with 50% HCl and extracted three times with equal volumes of ethyl acetate. The ethyl acetate extracts ware pooled and dried by stirring for 1 h with anhydrous MgSO4 (100 g/l). The ethyl acetate was removed by rotory evaporation and the solids re-dissolved in 3.0 ml ethyl acetate.
(§5) The GC was fitted with a Hewlett Packard capillary column HP-5MS, of length 30 m. The carrier gas was helium. Run conditions were as follows: Start temperature 40° C. held for 2 min, followed by 10° C./min ramp rate to final temperature 240° C. Total run time, 24 min. The mass scan range was 40 to 550 amu.
(§6) The flasks were incubated in an orbital shaker (120 rpm, 30° C.). At intervals 3 ml was withdrawn from each culture under sterile conditions for measurement of biomass and phenol concentration, as described in methods. The cells were also Gram stained and examined under the microscope.
The subject of data set [3] is Rhodococcus sp. strain 213F. In words: Growth studies of strain 213F in mineral salts medium with a sole sulphur source (biomass OD600, Gibbs phenol assay, GC-MS of metabolites). The following applies: for Mean Generation time / Biomass at end log phase: strain 213F in FruRM; for Mean Generation time / mean generation time (MGT) / Biomass at end log phase: sulphur source 200 μM; for mean generation time (MGT): strain 213F, (FruRM).
Protocol: as §1, §3
The flasks were incubated in an orbital shaker (120 rpm, 30° C.). At intervals 3 ml was withdrawn from each culture under sterile conditions for measurement of biomass and phenol concentration, as described in methods.

Data set [4] concerns Rhodococcus sp. strain IGTS8. In words: Growth studies of strain IGTS8 in mineral salts medium with a sole sulphur source (biomass OD600, Gibbs phenol assay, GC-MS of metabolites). The settings on record: for mean generation time (MGT): strain IGTS8, as stated in the text (FruRM).
Protocol: as §1, §2, §3, §4, §5, §6
The subject of another data set is strain ECRD-1. The settings on record: Lee, Senius and Grossman, 1996; cited from earlier work.
Another data set relates to strain N1-36. The following applies: Wang and Krawiec, 1996a; cited from earlier work.
The mark [5] stands for this setting: strain IGTS8 in SRM, sulphur source 200 μM.

Regarding `c1ccsc1` [thiophene], the “desulphurisation of compound by IGTS8” value in data set [1] is on record as “not”.
Consider `O=S(=O)([O-])[O-].[Na+].[Na+]` [sulphate, Sodium sulphate], for which the “Mean Generation time” value in data set [2] (sulphur source 200 μM) came to 4.4 h; in data set [3], 3.6 h; in data set [4] (setting [5]), 3.2 h. Also, the “mean generation time (MGT)” value in data set [2] (strain 213E, sulphur source 200 μM) is recorded as “around 4 h”; in data set [3] it was “around 4 h”; in data set [4] (sulphur source 200 μM), “around 4 h”.
Turning to `c1ccc2c(c1)sc1ccccc12` [DBT, dibenzothiophene], the “desulphurisation of compound by IGTS8” value in data set [1] is “desulphurises”. In addition, the “desulphurisation of compound by strain 213E” value in data set [2] is given as “unable to desulphurise; also recorded: does not desulphurise”. Further, the “growth with compound as sole sulphur source” value in data set [2] (strain 213E, compound substituted for BTH, FruRM, over a period of 100 h) is listed as “no significant growth”. Moreover, the “desulphurisation of compound by strain 213F” value in data set [3] was “able to desulphurise; also recorded: appears to desulphurise”. Further, the “Biomass at end log phase” value in data set [3] turned out to be 5.4 OD600; in data set [4] (strain IGTS8 in SRM, sulphur source 200 μM, 1 cm pathlength), 6.0 OD600. Moreover, the “Mean Generation time” value was found to be 12.4 h in data set [3] and 7.0 h in data set [4] (setting [5]). Moreover, the “mean generation time (MGT)” value is recorded as 12 h in data set [3] and “around 8 h” in data set [4] (sulphur source 200 μM). In addition, the “desulphurisation of compound by strain IGTS8” value in data set [4] is “desulphurised”.
As for `c1ccc2sccc2c1` [BTH, benzothiophene], the “desulphurisation of compound by IGTS8” value in data set [1] was “not”. Also, the “desulphurisation activity of strain ECRD-1” value in the data set on strain ECRD-1 was “negligible”. Further, the “desulphurisation activity of strain N1-36” value in the data set with strain N1-36 is listed as “negligible”. In addition, the “desulphurisation of compound by strain 213E” value in data set [2] is “efficiently desulphurise”. The “toxicity to strain 213E (effect on MGT)” value in data set [2] (concentration range <200 μM (growth curves 50-200 μM)) is given as “not toxic”. The “Biomass at end log phase” value in data set [2] (sulphur source 50 μM) stood at 2.3 OD600; in data set [2] (sulphur source 100 μM), 3.0 OD600; in data set [2] (sulphur source 200 μM), 4.2 OD600; in data set [3] it was 6.0 OD600. Moreover, the “Mean Generation time” value in data set [2] (sulphur source 50 μM) amounted to 8.0 h; in data set [2] (sulphur source 100 μM), 8.6 h; in data set [2] (sulphur source 200 μM), 9.0 h; in data set [3], 8.0 h. For the same molecule, in data set [3], the “desulphurisation of compound by strain 213F” value is recorded as “efficiently desulphurise; also recorded: able to desulphurise; also recorded: appears to desulphurise”. Moreover, the “mean generation time (MGT)” value in data set [3] is “around 8 h”. Besides, the “desulphurisation of compound by strain IGTS8” value in data set [4] is reported as “unable to desulphurise; also recorded: does not desulplurise”. Besides, the “growth with compound as sole sulphur source” value in data set [4] (strain IGTS8 in SRM, over a period of 100 h) was “no significant growth”.
